The values that follow are results of earlier work, collected in PMC13095657, “A two-step mechanism for sugar translocation” (Nature Structural & Molecular Biology, 2026).

The target in this data set is T1, XylE (Escherichia coli, UniProt P0AGF4).
T1 construct: made in house; host or cells: E. coli BL21-Gold (DE3)
To be noted: XylE WT in liposomes; ref https://www.jbc.org/action/showPdf?pii=S0021-9258%2821%2901315-6; read-out: KM by SSM.

T1 sequence (P0AGF4 whole entry): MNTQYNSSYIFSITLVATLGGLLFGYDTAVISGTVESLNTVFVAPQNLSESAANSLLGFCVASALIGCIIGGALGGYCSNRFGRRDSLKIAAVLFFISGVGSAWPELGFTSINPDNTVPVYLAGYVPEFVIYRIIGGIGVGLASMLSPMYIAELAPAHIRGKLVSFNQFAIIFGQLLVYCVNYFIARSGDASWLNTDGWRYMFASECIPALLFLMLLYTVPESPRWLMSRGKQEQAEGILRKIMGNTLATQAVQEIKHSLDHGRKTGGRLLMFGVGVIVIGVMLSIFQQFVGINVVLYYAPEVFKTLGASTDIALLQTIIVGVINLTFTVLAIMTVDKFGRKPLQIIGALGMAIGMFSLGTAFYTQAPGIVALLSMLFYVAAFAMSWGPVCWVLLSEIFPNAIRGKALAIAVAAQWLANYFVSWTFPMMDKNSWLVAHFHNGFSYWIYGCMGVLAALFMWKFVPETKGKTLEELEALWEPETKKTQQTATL

In the case of `OC1OC[C@@H](O)[C@H](O)[C@H]1O` (stereo partly drawn) [D-xylose], the Km – broadly, the substrate concentration at which the rate is half of its maximum – was 1700 µM.
